Laboratory results published in patent publication US9012678B2, “Processes for the preparation of fesoterodine” (Cadila Healthcare Limited, priority 2010, dated 2015).

Key:
[1] = Particle Size Distribution (PSD) by laser diffraction in a Malvern Master Sizer; assay type: physicochemical
Method: Particle Size Distribution (PSD)” is determined by laser diffraction in a Malvern Master Sizer by using known method.

[2] = Stability study for Fesoterodine Fumarate (description, water by KF, related substances by HPLC on storage); assay type: physicochemical
Method: As used herein, the term “stable fesoterodine fumarate” fesoterodine fumarate containing any individual impurities less than 0.15% after exposure to a relative humidity of 60% at 25° for a period of at least three months or after exposure to a relative humidity of 75% at 40° for a period of at least three months
2) High Performance Liquid Chromatography (HPLC) Method for Determination of Impurity X in Fesoterodine Fumarate of formula (1)
• Equipment: Shimadzu LC2010C HPLC system equipped with a wavelength UV-VIS detector or equivalent. • Column: Inertsil ODS-3 (250 mm×4.6 mm, 5 μm), Make: GL Sciences Part No: 5020-01732 • Flow rate: 1.2 mL/minute • Column oven temp: 30° C. • Wavelength: 220 nm • Injection volume: 10 μL • Run time: 60 minutes • Diluent: Premixed buffer and acetonitrile in the volume ratio of 75:25. Preparation of Buffer:
Transfer 1 mL orthophosphoric acid in 1000 mL volumetric flask containing about 500 mL of water and make up the volume with water. Filter through 0.2 μm membrane filter paper.
Weigh accurately and transfer about 25 mg of sample of Fesoterodine Fumarate or Fesoterodine Fumarate (technical) into a 50 mL volumetric flask. Add 5 mL tetrahydrofuran, sonicate to dissolve and make up the volume with diluent. Make fresh two preparations at the time of injection.
Inject sample solutions containing the chromatogram upto the end of gradient. Determine the area of each impurity using suitable integrator.

[3] = 1 Month 2 to 8° C., PSD: D(90) = 10 microns
[4] = 1 Month 2 to 8° C., PSD: D(90) = 270 microns
[5] = 1 Month 25° C. ± 2° C./RH 60% ± 5%, PSD: D(90) = 10 microns
[6] = 1 Month 25° C. ± 2° C./RH 60% ± 5%, PSD: D(90) = 270 microns
[7] = 1 Month 40° C. ± 2° C./RH 75% ± 5%, PSD: D(90) = 10 microns
[8] = 1 Month 40° C. ± 2° C./RH 75% ± 5%, PSD: D(90) = 270 microns
[9] = 2 Months 2 to 8° C., PSD: D(90) = 10 microns
[10] = 2 Months 2 to 8° C., PSD: D(90) = 270 microns
[11] = 2 Months 25° C. ± 2° C./RH 60% ± 5%, PSD: D(90) = 270 microns
[12] = 2 Months 25° C. ± 2° C./RH, PSD: D(90) = 10 microns
[13] = 2 Months 40° C. ± 2° C./RH 75% ± 5%, PSD: D(90) = 10 microns
[14] = 2 Months 40° C. ± 2° C./RH 75% ± 5%, PSD: D(90) = 270 microns
[15] = 3 Months 2 to 8° C., PSD: D(90) = 10 microns
[16] = 3 Months 2 to 8° C., PSD: D(90) = 270 microns
[17] = 3 Months 25° C. ± 2° C./RH 60% ± 5%, PSD: D(90) = 10 microns
[18] = 3 Months 25° C. ± 2° C./RH 60% ± 5%, PSD: D(90) = 270 microns
[19] = 3 Months 40° C. ± 2° C./RH 75% ± 5%, PSD: D(90) = 10 microns
[20] = 3 Months 40° C. ± 2° C./RH 75% ± 5%, PSD: D(90) = 270 microns
[21] = Initial, PSD: D(90) = 10 microns
[22] = Initial, PSD: D(90) = 270 microns

## CC(C)C(=O)Oc1ccc(CO)cc1[C@H](CCN(C(C)C)C(C)C)c1ccccc1.O=C(O)/C=C/C(=O)O [Fesoterodine Fumarate, isobutyric acid 2-[(R)-3-diisopropylammonium-1-phenylpropyl)-4-(hydroxy-methyl)phenyl ester hydrogen fumarate]
[1]; batch from IPA/diisopropyl ether, D(90) less than 200 microns
  PSD: D(90): PSD: D(90) = 10 microns
[1]; batch of Example 16 (methyl ethyl ketone/cyclohexane, seeded), D(90) higher than 200 microns
  PSD: D(90): PSD: D(90) = 270 microns
[2]; [3]
  Description: White
  Related substance (by HPLC) i) Diol: 0.06 % w/w
  Related substance (by HPLC) ii) Diester: 0.03 % w/w
  Related substance (by HPLC) iii) Oxidized (RRT 1.37): 0.09 % w/w
  Related substance (by HPLC) iv) Any individual impurities: 0.03 % w/w
  Related substance (by HPLC) v) Total impurities: 0.21 % w/w
  Water by KF: 0.16 % w/w
[2]; [4]
  Description: White
  Related substance i) Diol: 0.05%
  Related substance ii) Diester: BQL
  Related substance iii) Oxidized (RRT 1.37): BQL
  Related substance iv) Any individual impurities: BQL
  Related substance v) Total impurities: 0.05%
  Water by KF: 0.16 % w/w
[2]; [5]
  Description: White
  Related substance (by HPLC) i) Diol: 0.09 % w/w
  Related substance (by HPLC) ii) Diester: BQL
  Related substance (by HPLC) iii) Oxidized (RRT 1.37): 0.15 % w/w
  Related substance (by HPLC) iv) Any individual impurities: 0.02 % w/w
  Related substance (by HPLC) v) Total impurities: 0.26 % w/w
  Water by KF: 0.15 % w/w
[2]; [6]
  Description: White
  Related substance i) Diol: 0.05%
  Related substance ii) Diester: BQL
  Related substance iii) Oxidized (RRT 1.37): BQL
  Related substance iv) Any individual impurities: BQL
  Related substance v) Total impurities: 0.05%
  Water by KF: 0.15 % w/w
[2]; [7]
  Description: White
  Related substance (by HPLC) i) Diol: 0.07 % w/w
  Related substance (by HPLC) ii) Diester: BQL
  Related substance (by HPLC) iii) Oxidized (RRT 1.37): 0.17 % w/w
  Related substance (by HPLC) iv) Any individual impurities: 0.02 % w/w
  Related substance (by HPLC) v) Total impurities: 0.28 % w/w
  Water by KF: 0.12 % w/w
[2]; [8]
  Description: White
  Related substance i) Diol: 0.33%
  Related substance ii) Diester: 0.04%
  Related substance iii) Oxidized (RRT 1.37): 0.06%
  Related substance iv) Any individual impurities: 0.06%
  Related substance v) Total impurities: 0.59%
  Water by KF: 0.56 % w/w
[2]; [9]
  Description: White
  Related substance (by HPLC) i) Diol: 0.06 % w/w
  Related substance (by HPLC) ii) Diester: BQL
  Related substance (by HPLC) iii) Oxidized (RRT 1.37): 0.09 % w/w
  Related substance (by HPLC) iv) Any individual impurities: 0.03 % w/w
  Related substance (by HPLC) v) Total impurities: 0.21 % w/w
  Water by KF: 0.16 % w/w
[2]; [10]
  Description: White
  Related substance i) Diol: 0.06%
  Related substance ii) Diester: BQL
  Related substance iii) Oxidized (RRT 1.37): BQL
  Related substance iv) Any individual impurities: BQL
  Related substance v) Total impurities: 0.06%
  Water by KF: 0.16 % w/w
[2]; [11]
  Description: White
  Related substance i) Diol: 0.04%
  Related substance ii) Diester: BQL
  Related substance iii) Oxidized (RRT 1.37): BQL
  Related substance iv) Any individual impurities: BQL
  Related substance v) Total impurities: 0.04%
  Water by KF: 0.15 % w/w
[2]; [12]
  Description: White
  Related substance (by HPLC) i) Diol: 0.09 % w/w
  Related substance (by HPLC) ii) Diester: BQL
  Related substance (by HPLC) iii) Oxidized (RRT 1.37): 0.17 % w/w
  Related substance (by HPLC) iv) Any individual impurities: 0.02 % w/w
  Related substance (by HPLC) v) Total impurities: 0.26 % w/w
  Water by KF: 0.15 % w/w
[2]; [13]
  Description: White
  Related substance (by HPLC) i) Diol: 0.07 % w/w
  Related substance (by HPLC) ii) Diester: BQL
  Related substance (by HPLC) iii) Oxidized (RRT 1.37): 0.27 % w/w
  Related substance (by HPLC) iv) Any individual impurities: 0.04 % w/w
  Related substance (by HPLC) v) Total impurities: 0.49 % w/w
  Water by KF: 0.12 % w/w
[2]; [14]
  Description: White
  Related substance i) Diol: 0.5%
  Related substance ii) Diester: 0.05%
  Related substance iii) Oxidized (RRT 1.37): 0.05%
  Related substance iv) Any individual impurities: 0.07%
  Related substance v) Total impurities: 0.22%
  Water by KF: 0.2 % w/w
[2]; [15]
  Description: White
  Related substance (by HPLC) i) Diol: 0.06 % w/w
  Related substance (by HPLC) ii) Diester: 0.03 % w/w
  Related substance (by HPLC) iii) Oxidized (RRT 1.37): 0.08 % w/w
  Related substance (by HPLC) iv) Any individual impurities: 0.03 % w/w
  Related substance (by HPLC) v) Total impurities: 0.21 % w/w
  Water by KF: 0.16 % w/w
[2]; [16]
  Description: White
  Related substance i) Diol: 0.06%
  Related substance ii) Diester: BQL
  Related substance iii) Oxidized (RRT 1.37): BQL
  Related substance iv) Any individual impurities: BQL
  Related substance v) Total impurities: 0.06%
  Water by KF: 0.16 % w/w
[2]; [17]
  Description: White
  Related substance (by HPLC) i) Diol: 0.09 % w/w
  Related substance (by HPLC) ii) Diester: BQL
  Related substance (by HPLC) iii) Oxidized (RRT 1.37): 0.19 % w/w
  Related substance (by HPLC) iv) Any individual impurities: 0.02 % w/w
  Related substance (by HPLC) v) Total impurities: 0.26 % w/w
  Water by KF: 0.16 % w/w
[2]; [18]
  Description: White
  Related substance i) Diol: 0.06%
  Related substance ii) Diester: BQL
  Related substance iii) Oxidized (RRT 1.37): BQL
  Related substance iv) Any individual impurities: BQL
  Related substance v) Total impurities: 0.06%
  Water by KF: 0.16 % w/w
[2]; [19]
  Description: White
  Related substance (by HPLC) i) Diol: 0.07 % w/w
  Related substance (by HPLC) ii) Diester: BQL
  Related substance (by HPLC) iii) Oxidized (RRT 1.37): 0.29 % w/w
  Related substance (by HPLC) iv) Any individual impurities: 0.04 % w/w
  Related substance (by HPLC) v) Total impurities: 0.49 % w/w
  Water by KF: 0.12 % w/w
[2]; [20]
  Description: White
  Related substance i) Diol: 0.6%
  Related substance ii) Diester: 0.06%
  Related substance iii) Oxidized (RRT 1.37): 0.06%
  Related substance iv) Any individual impurities: 0.04%
  Related substance v) Total impurities: 0.22%
  Water by KF: 0.12 % w/w
[2]; [21]
  Description: White
  Related substance (by HPLC) i) Diol: 0.06 % w/w
  Related substance (by HPLC) ii) Diester: 0.02 % w/w
  Related substance (by HPLC) iii) Oxidized (RRT 1.37): 0.05 % w/w
  Related substance (by HPLC) iv) Any individual impurities: 0.02 % w/w
  Related substance (by HPLC) v) Total impurities: 0.15 % w/w
  Water by KF: 0.2 % w/w
[2]; [22]
  Description: White
  Related substance i) Diol: 0.1%
  Related substance ii) Diester: 0.05%
  Related substance iii) Oxidized (RRT 1.37): 0.06%
  Related substance iv) Any individual impurities: 0.02%
  Related substance v) Total impurities: 0.21%
  Water by KF: 0.33 % w/w
[2]; fesoterodine fumarate with higher particle size
  degradation of fesoterodine under stress conditions: significantly slow down the degradation
